The target in this test is PI3Kβ (Homo sapiens (Human), UniProt P42338). As to the kind of experiment: PI3K isoform TR-FRET enzymatic assay (PI3Kβ). It is filed as biochemical. The settings on record: 2× Km ATP, 30 minutes at 25° C. In short, it runs like this: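 IC50 came from four-parameter dose-response fits, normalized between DMSO and 1 μM wortmannin controls. The read-out was TR-FRET (615/665 nm) of PIP3 displacing fluorescent PIP3 from Europium GRP-1 after 10 mM EDTA termination. Compounds were incubated with purified heterodimeric PI3Kβ for 30 min at 25° C.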
Sequence of PI3Kβ (P42338 whole entry, canonical isoform): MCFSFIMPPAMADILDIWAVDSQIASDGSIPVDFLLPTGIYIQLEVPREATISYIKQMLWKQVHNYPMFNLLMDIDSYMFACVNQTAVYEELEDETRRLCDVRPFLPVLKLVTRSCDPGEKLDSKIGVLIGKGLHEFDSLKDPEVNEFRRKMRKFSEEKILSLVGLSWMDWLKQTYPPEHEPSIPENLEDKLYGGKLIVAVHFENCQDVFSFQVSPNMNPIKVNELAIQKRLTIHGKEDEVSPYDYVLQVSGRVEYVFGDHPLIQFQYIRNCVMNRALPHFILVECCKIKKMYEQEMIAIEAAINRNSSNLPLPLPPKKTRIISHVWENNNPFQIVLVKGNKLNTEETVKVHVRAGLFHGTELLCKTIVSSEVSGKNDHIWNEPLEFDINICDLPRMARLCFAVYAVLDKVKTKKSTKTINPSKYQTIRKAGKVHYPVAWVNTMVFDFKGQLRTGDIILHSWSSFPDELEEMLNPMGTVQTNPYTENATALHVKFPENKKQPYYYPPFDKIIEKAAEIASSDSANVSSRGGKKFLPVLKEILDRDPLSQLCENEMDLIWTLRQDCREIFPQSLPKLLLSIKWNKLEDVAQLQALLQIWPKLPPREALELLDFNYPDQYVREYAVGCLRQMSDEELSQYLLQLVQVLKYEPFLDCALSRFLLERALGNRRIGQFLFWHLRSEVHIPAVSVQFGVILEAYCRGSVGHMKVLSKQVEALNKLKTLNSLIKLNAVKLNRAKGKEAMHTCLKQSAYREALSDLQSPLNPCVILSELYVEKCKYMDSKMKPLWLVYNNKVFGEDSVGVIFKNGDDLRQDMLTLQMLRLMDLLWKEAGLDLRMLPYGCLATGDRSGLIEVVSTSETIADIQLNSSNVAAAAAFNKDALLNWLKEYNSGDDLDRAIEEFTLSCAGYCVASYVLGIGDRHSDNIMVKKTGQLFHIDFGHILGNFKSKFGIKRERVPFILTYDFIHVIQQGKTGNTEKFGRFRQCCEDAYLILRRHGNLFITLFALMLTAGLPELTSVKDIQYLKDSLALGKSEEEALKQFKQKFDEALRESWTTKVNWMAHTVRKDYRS
Sequence of PI3Kβ (P27986 whole entry partner, canonical isoform): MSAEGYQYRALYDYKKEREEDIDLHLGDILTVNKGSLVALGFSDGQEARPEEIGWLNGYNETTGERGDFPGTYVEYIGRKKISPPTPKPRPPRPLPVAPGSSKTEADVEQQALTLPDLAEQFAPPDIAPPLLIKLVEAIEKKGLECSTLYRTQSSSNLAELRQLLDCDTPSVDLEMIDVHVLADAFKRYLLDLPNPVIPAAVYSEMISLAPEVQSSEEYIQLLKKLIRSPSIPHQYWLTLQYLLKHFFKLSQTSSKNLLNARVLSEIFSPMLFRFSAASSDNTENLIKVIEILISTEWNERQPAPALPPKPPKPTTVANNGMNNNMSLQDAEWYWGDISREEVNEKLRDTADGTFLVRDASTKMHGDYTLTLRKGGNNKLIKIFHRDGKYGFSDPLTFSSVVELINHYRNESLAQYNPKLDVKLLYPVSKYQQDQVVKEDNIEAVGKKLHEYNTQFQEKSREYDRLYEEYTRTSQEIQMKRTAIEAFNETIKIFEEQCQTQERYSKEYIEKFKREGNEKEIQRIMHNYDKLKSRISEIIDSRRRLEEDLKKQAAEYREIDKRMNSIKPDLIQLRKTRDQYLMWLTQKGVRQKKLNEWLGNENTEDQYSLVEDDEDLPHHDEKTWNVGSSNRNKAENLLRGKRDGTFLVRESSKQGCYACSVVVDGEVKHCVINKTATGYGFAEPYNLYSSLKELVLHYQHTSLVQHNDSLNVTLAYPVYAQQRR
A general note: TR-FRET usually uses a lanthanide donor and a delayed reading to cut background.

Each structure is given as a SMILES string.

For orientation: IC50 means the concentration that inhibits the measured activity by half. Low values mean greater potency in that assay, high ones weaker potency in that assay.

In turn, `Cc1cc(-n2c(C)nc3c(-c4nnn[nH]4)cc(N4CCOCC4)cc32)c2ccccc2n1` [Example 160, 4-(2-methyl-1-(2-methylquinolin-4-yl)-4-(1H-tetrazol-5-yl)-1H-benzo[d]imidazol-6-yl)morpholine] displayed an IC50 of 470 nM. Compound `Cc1nc2c(-c3ccco3)cc(N3CCOCC3)cc2n1-c1ccnc2c(Cl)cccc12` [Example 274, 4-[3-(8-chloroquinolin-4-yl)-7-(furan-2-yl)-2-methylbenzimidazol-5-yl]morpholine] gave an IC50 of 27 nM. Next, `Cc1nc2c(-c3ccccc3)cc(N3CCOCC3)cc2n1-c1ccnc2c(Cl)cccc12` [Example 311, 4-(1-(8-chloroquinolin-4-yl)-2-methyl-4-phenyl-1H-benzo[d]imidazol-6-yl)morpholine]: 47 nM. Next, `Cc1nc2c(-c3nnc[nH]3)cc(N3CCOCC3)cc2n1-c1c(C2CC2)cnc2ccccc12` [Example 66, 4-[3-(3-cyclopropylquinolin-4-yl)-2-methyl-7-(4H-1,2,4-triazol-3-yl)benzimidazol-5-yl]morpholine]: 16 nM. The compound `Cc1nc2c(-c3nnc[nH]3)cc(N3CCOCC3)cc2n1-c1ccnc2c(F)c(F)ccc12` (atropisomer, axis not shown) [Compound 352, 4-[3-(7,8-difluoroquinolin-4-yl)-2-methyl-7-(4H-1,2,4-triazol-3-yl)benzimidazol-5-yl]morpholine] came in with an IC50 of 7 nM.

`CCc1nc2c(-c3cnc(Cl)[nH]3)cc(N3CCOCC3)cc2n1-c1ccnc2c(F)cccc12` [Example 284, 4-[7-(2-chloro-1H-imidazol-5-yl)-2-ethyl-3-(8-fluoroquinolin-4-yl)benzimidazol-5-yl]morpholine] returned an IC50 of 13 nM.

`CCc1nc2c(-c3ncc[nH]3)cc(N3CCOCC3)cc2n1-c1ccnc2c(F)ccc(F)c12` (atropisomer, axis not shown) [Compound 370, 4-(1-(5,8-difluoroquinolin-4-yl)-2-ethyl-4-(1H-imidazol-2-yl)-1H-benzo[d]imidazol-6-yl)morpholine]: the half-maximal inhibitory concentration (IC50) was determined as 13 nM. Next, `Cc1cccc2nccc(-n3c(C)nc4c(-c5nnc[nH]5)cc(N5CCOCC5)cc43)c12` [Example 83, 4-[2-methyl-3-(5-methylquinolin-4-yl)-7-(4H-1,2,4-triazol-3-yl)benzimidazol-5-yl]morpholine]: 19 nM; `CCCc1nc2c(-c3nnc(C)[nH]3)cc(N3CCOCC3)cc2n1-c1ccnc2cc(F)ccc12` [Example 21, 4-(1-(7-fluoroquinolin-4-yl)-4-(5-methyl-4H-1,2,4-triazol-3-yl)-2-propyl-1H-benzo[d]imidazol-6-yl)morpholine]: 130 nM; `COCCc1nc2c(-c3nnc[nH]3)cc(N3CCOCC3)cc2n1-c1ccnc2c(F)cccc12` [Example 42, 4-(1-(8-fluoroquinolin-4-yl)-2-(2-methoxyethyl)-4-(4H-1,2,4-triazol-3-yl)-1H-benzo[d]imidazol-6-yl)morpholine]: 20 nM.

The compound `CCc1c(C)nc2ccccc2c1-n1cnc2c(-c3nc(C)n[nH]3)cc(N3CCOCC3)cc21` [Example 75, 4-[3-(3-ethyl-2-methylquinolin-4-yl)-7-(3-methyl-1H-1,2,4-triazol-5-yl)benzimidazol-5-yl]morpholine] yielded an IC50 of 29 nM. Next, `Cc1nc(-c2cc(N3CCOCC3)cc3c2nc(C)n3-c2ccnc3c(Cl)cccc23)sc1C` [Example 216, 4-[3-(8-chloroquinolin4-yl)-7-(4,5-dimethyl-1,3-thiazol-2-yl)-2-methylbenzimidazol-5-yl]morpholine]: 380 nM; `Cc1ncc(-c2cc(N3CCOCC3)cc3c2nc(C)n3-c2ccnc3c(Cl)cccc23)[nH]1` [Example 201, 4-[3-(8-chloroquinolin-4-yl)-2-methyl-7-(2-methyl-1H-imidazol-5-yl)benzimidazol-5-yl]morpholine]: 19 nM; `Cc1nc2c(-c3cncs3)cc(N3CCOCC3)cc2n1-c1ccnc2c(Cl)cccc12` [Example 276, 4-[3-(8-chloroquinolin-4-yl)-2-methyl-7-(1,3-thiazol-5-yl)benzimidazol-5-yl]morpholine]: 420 nM. Next, `Cc1nc2c(-c3nnc[nH]3)cc(N3CCOCC3)cc2n1-c1ccnc2c(F)ccc(Cl)c12` (atropisomer, axis not shown) [Compound 344, 4-[3-(5-chloro-8-fluoroquinolin-4-yl)-2-methyl-7-(4H-1,2,4-triazol-3-yl)benzimidazol-5-yl]morpholine]: 5 nM; `CCc1nc2ccccc2c(-n2c(C)nc3c(-c4nc(C)n[nH]4)cc(N4CCOCC4)cc32)c1C` [Example 76, 4-[3-(2-ethyl-3-methylquinolin-4-yl)-2-methyl-7-(3-methyl-1H-1,2,4-triazol-5-yl)benzimidazol-5-yl]morpholine]: 29 nM; `Cc1nc2c(-c3ncco3)cc(N3CCOCC3)cc2n1-c1ccnc2c(F)cccc12` (atropisomer, axis not shown) [Example 340, 4-[3-(8-fluoroquinolin-4-yl)-2-methyl-7-(1,3-oxazol-2-yl)benzimidazol-5-yl]morpholine]: 1900 nM. Next, `Cc1nc2c(-c3nnco3)cc(N3CCOCC3)cc2n1-c1ccnc2c(Cl)cccc12` [Example 162, 4-(1-(8-chloroquinolin-4-yl)-2-methyl-4-(1,3,4-oxadiazol-2-yl)-1H-benzo[d]imidazol-6-yl)morpholine]: 77 nM. For `Cc1nc2c(-c3nnc[nH]3)cc(N3CCOCC3)cc2n1-c1ccnc2c(F)cc(F)cc12` [Example 145, 4-[3-(6,8-difluoroquinolin-4-yl)-2-methyl-7-(4H-1,2,4-triazol-3-yl)benzimidazol-5-yl]morpholine], the half-inhibitory concentration (IC50) was determined as 56 nM. For `Cc1nc2c(-c3cnc(Cl)[nH]3)cc(N3CCOCC3)cc2n1-c1ccnc2c(Cl)c(F)ccc12` [Example 294, 4-[3-(8-chloro-7-fluoroquinolin-4-yl)-7-(2-chloro-1H-imidazol-5-yl)-2-methylbenzimidazol-5-yl]morpholine], the IC50 came out at 6 nM. Compound `Cc1nc2c(-c3ccccn3)cc(N3CCOCC3)cc2n1-c1ccnc2c(Cl)cccc12` [Example 323, 4-[3-(8-chloroquinolin-4-yl)-2-methyl-7-pyridin-2-ylbenzimidazol-5-yl]morpholine] showed an IC50 of 417 nM. Next, `Fc1ccc(F)c2c(-n3c(C4CC4)nc4c(-c5nccs5)cc(N5CCOCC5)cc43)ccnc12` [Example 241, 4-[2-cyclopropyl-3-(5,8-difluoroquinolin-4-yl)-7-(1,3-thiazol-2-yl)benzimidazol-5-yl]morpholine]: 27 nM; `Cc1nnc(-c2cc(N3CCOCC3)cc3c2nc(C)n3-c2ccnc3c(C(F)F)cccc23)[nH]1` [Example 92, 4-[3-[8-(difluoromethyl)quinolin-4-yl]-2-methyl-7-(5-methyl-4H-1,2,4-triazol-3-yl)benzimidazol-5-yl]morpholine]: 46 nM. Next, `Cc1n[nH]c(-c2cc(N3CCOCC3)cc3c2nc(C)n3-c2c(C)cnc3c(Cl)cccc23)n1` [Example 78, 4-[3-(8-chloro-3-methylquinolin-4-yl)-2-methyl-7-(3-methyl-1H-1,2,4-triazol-5-yl)benzimidazol-5-yl]morpholine]: 27 nM; `Cc1nc2c(-c3nnc[nH]3)cc(N3CCOCC3)c(F)c2n1-c1ccnc2c(Cl)ccc(F)c12` [Example 150, 4-(1-(8-chloro-5-fluoroquinolin-4-yl)-7-fluoro-2-methyl-4-(4H-1,2,4-triazol-3-yl)-1H-benzo[d]imidazol-6-yl)morpholine]: 27 nM; `CCc1nc2c(-c3nnc[nH]3)cc(N3CCOCC3)cc2n1-c1c(-c2nnc[nH]2)cnc2ccccc12` [Example 391, 4-(1-(3-(4H-1,2,4-triazol-3-yl)quinolin-4-yl)-2-ethyl-4-(4H-1,2,4-triazol-3-yl)-1H-benzo[d]imidazol-6-yl)morpholine]: 10 nM.

`Clc1cccc2c(-n3c(-c4cnco4)nc4c(-c5nnc[nH]5)cc(N5CCOCC5)cc43)ccnc12` [Example 112, 4-[3-(8-chloroquinolin-4-yl)-2-(1,3-oxazol-5-yl)-7-(4H-1,2,4-triazol-3-yl)benzimidazol-5-yl]morpholine] gave an IC50 of 17 nM. Next, `Cc1cc(-n2c(C)nc3c(-c4nnc[nH]4)cc(N4CCOCC4)cc32)c2cccc(C(F)(F)F)c2n1` [Example 60, 4-[2-methyl-3-[2-methyl-8-(trifluoromethyl)quinolin-4-yl]-7-(4H-1,2,4-triazol-3-yl)benzimidazol-5-yl]morpholine]: 30 nM; `Fc1ccc(Cl)c2nccc(-n3c(C4CC4)nc4c(-c5nnc(Cl)[nH]5)cc(N5CCOCC5)cc43)c12` [Example 174, 4-(4-(5-chloro-4H-1,2,4-triazol-3-yl)-1-(8-chloro-5-fluoroquinolin-4-yl)-2-cyclopropyl-1H-benzo[d]imidazol-6-yl)morpholine]: 13 nM; `CCc1nc2c(-c3cnc[nH]3)cc(N3CCOCC3)cc2n1-c1ccnc2c(F)ccc(F)c12` [Example 337, 4-[3-(5,8-difluoroquinolin-4-yl)-2-ethyl-7-(1H-imidazol-5-yl)benzimidazol-5-yl]morpholine]: 20 nM. In the case of `Cc1nc2c(-c3nnc[nH]3)cc(N3CCOCC3)cc2n1-c1ccnc2cccc(F)c12` [Example 81, 4-[3-(5-fluoroquinolin-4-yl)-2-methyl-7-(4H-1,2,4-triazol-3-yl)benzimidazol-5-yl]morpholine], the IC50 turned out to be 11 nM. Next, `CCCc1nc2c(-c3nnc[nH]3)cc(N3CCOCC3)cc2n1-c1ccnc2c(Cl)cccc12` [Compound 1, 4-(1-(8-chloroquinolin-4-yl)-2-propyl-4-(4H-1,2,4-triazol-3-yl)-1H-benzo[d]imidazol-6-yl)morpholine 2,2,2-trifluoroacetate]: 4 nM; `Cc1nnc(-c2cc(N3CCOCC3)cc3c2ncn3-c2ccnc3c(Cl)cccc23)[nH]1` [Example 134, 4-[3-(8-chloroquinolin-4-yl)-7-(5-methyl-4H-1,2,4-triazol-3-yl)benzimidazol-5-yl]morpholine]: 16 nM.

Values taken from patent publication US10214519B2, “Phosphatidylinositol 3-kinase inhibitors” (Gilead Sciences, Inc., priority 2016, dated 2019).
